≈ marks a conversion by molar mass, not a printed value. Where “and” joins values, the source holds several entries; their conditions need not be identical. Identical values can stand only once. Entries after “also recorded” stand apart in the source; their conditions may differ. Like-named read-outs stand apart in the source and are kept apart here.
Assays:
[1] = system: M. tuberculosis H37Ra PZA^R #106; experiment: microbe, parasite or virus in culture; type: cell-based; conditions: Mycobacterium tuberculosis, 504 h, pH 6.8, read-out: MIC of PZA
[2] = system: M. tuberculosis H37Ra PZA^R #186; experiment: microbe, parasite or virus in culture; type: cell-based; conditions: Mycobacterium tuberculosis, 504 h, pH 6.8, read-out: MIC of PZA
[3] = system: H37Ra; experiment: microbe, parasite or virus in culture; type: cell-based, Mycobacterium tuberculosis
[4] = system: M. tuberculosis H37Ra; experiment: microbe, parasite or virus in culture; type: cell-based, Mycobacterium tuberculosis; conditions: for MIC: Mycobacterium tuberculosis, H37RA
[5] = system: M. tuberculosis H37Ra PZA^R #6; experiment: microbe, parasite or virus in culture; type: cell-based; conditions: Mycobacterium tuberculosis, 504 h, pH 6.8, read-out: MIC of PZA
[6] = system: M. tuberculosis H37Ra PZA^R #78; experiment: microbe, parasite or virus in culture; type: cell-based; conditions: Mycobacterium tuberculosis, 504 h, pH 6.8, read-out: MIC of PZA
[7] = system: M. tuberculosis H37Ra; experiment: microbe, parasite or virus in culture; type: cell-based, Mycobacterium tuberculosis; conditions: for MIC: Mycobacterium tuberculosis, H37RA; remark: listed apart in the source
[8] = system: M. tuberculosis H37Ra PZA^R #98; experiment: microbe, parasite or virus in culture; type: cell-based; conditions: Mycobacterium tuberculosis, 504 h, pH 6.8, read-out: MIC of PZA
[9] = system: M. tuberculosis H37Ra (PZA^S); type: cell-based; conditions: test tubes, PZA-S1 medium, pH 6.8
[10] = system: M. tuberculosis H37Ra; type: cell-based, Mycobacterium tuberculosis
[11] = system: M. tuberculosis; type: cell-based, Mycobacterium tuberculosis; conditions: pH 6.8

Question: For NC(=O)c1cnccn1 [PZA, Pyrazinamide], which MIC [1] is on record?
Answer: > 800 µg/mL

Question: What about the MIC [2] of the same molecule?
Answer: > 800 µg/mL

Question: And the “Percentage of CFU to Z 0” value [3]?
Answer: 1.20% and 0.14% and 0.02% and 0.08%

Question: What about the MIC ([3]; Mycobacterium tuberculosis, H37RA, read-out: MIC of PZA) of the same molecule?
Answer: 50 µg/mL

Question: What about the “MIC for PZA lower in acidic conditions (pH 6.5 and pH 6.0) than in neutral pH 7.0 conditions” value [4] of the same molecule?
Answer: 8 fold

Question: What about the MIC ([4]; pH 5.5, read-out: MIC for PZA) of the same molecule?
Answer: < 12.5 µg/mL

Question: And the MIC ([4]; pH 6, read-out: MIC for PZA)?
Answer: 100 µg/mL (≈ 812 µM)

Question: What about the MIC ([4]; pH 7, read-out: MIC for PZA) of the same molecule?
Answer: 25 µg/mL (≈ 203 µM)

Question: What about the MIC ([4]; pH 8, read-out: MIC for PZA) of the same molecule?
Answer: 200 µg/mL (≈ 1620 µM)

Question: And the MIC ([4]; read-out: MIC for PZA)?
Answer: 200 µg/mL (≈ 1620 µM)

Question: What about the growth ([4]; pH 5) of the same molecule?
Answer: −

Question: And the growth ([4]; pH 5.5)?
Answer: − and +

Question: What about the growth ([4]; pH 6) of the same molecule?
Answer: + and −

Question: And the growth ([4]; pH 6.5)?
Answer: + and −

Question: And the growth ([4]; pH 7)?
Answer: + and −

Question: What about the growth ([4]; pH 7.5) of the same molecule?
Answer: − and +

Question: What about the growth ([4]; pH 8) of the same molecule?
Answer: − and +

Question: What about the growth ([4]; pH 8.5) of the same molecule?
Answer: − and +

Question: What about the MIC [5] of the same molecule?
Answer: > 800 µg/mL

Question: What about the MIC [6] of the same molecule?
Answer: > 800 µg/mL

Question: What about the MIC ([7]; 336 h, pH 6.8) of the same molecule?
Answer: 200 µg/mL (≈ 1620 µM)

Question: What about the MIC ([7]; pH 6.8, read-out: MICs of PZA) of the same molecule?
Answer: 100 to 200 µg/mL (≈ 812 to 1620 µM)

Question: What about the MIC ([7]; read-out: MIC of PZA) of the same molecule?
Answer: 50 µg/mL

Question: What about the “increase in MIC between 1/100 and 1/10 inoculum size dilutions” value ([7]; pH 6.8) of the same molecule?
Answer: 2-8 fold

Question: What about the MIC [8] of the same molecule?
Answer: > 800 µg/mL

Question: And the “concentration of PZA at which growth was inhibited” value [9]?
Answer: 200 µg/mL

Question: And the “lawn formation of M. tuberculosis” value ([10]; pH 6.6)?
Answer: no inhibition

Question: What about the “growth inhibition, paper disk” value ([10]; pH 6.8) of the same molecule?
Answer: small inhibition zone; also recorded: strong growth inhibition

Question: And the “lawn formation of M. tuberculosis” value ([10]; pH 6.8)?
Answer: inhibited lawn formation

Question: COc1nc2ccc(Br)cc2cc1[C@@H](c1ccccc1)[C@@](O)(CCN(C)C)c1cccc2ccccc12 [bedaquiline] was tested. Which MIC ([7]; pH 6.8) did it give?
Answer: 0.064 µg/mL (≈ 0.115 µM)

Question: Which results are given for O=[N+]([O-])c1cnc(Sc2ccncn2)s1 [compound 311727]?
Answer: MIC in the media 7H9 [11]: ≥ 24.03 µg/mL; MIC in the media L-Ala [11]: 0.77 µg/mL (≈ 3.2 µM); MIC in the media SBA [11]: 0.77 µg/mL (≈ 3.2 µM); MIC in the media SLac [11]: 0.77 µg/mL (≈ 3.2 µM)

Question: Cc1ccc(NCCN(C)C)c2c(=O)c3cc(O)ccc3sc12.I [compound 317003] was tested. Which “MIC in the media 7H9” value [11] did it give?
Answer: ≥ 5.70 µg/mL

Question: What about the “MIC in the media L-Ala” value [11] of the same molecule?
Answer: 2.85 µg/mL

Question: What about the “MIC in the media SBA” value [11] of the same molecule?
Answer: 2.85 µg/mL

Question: What about the “MIC in the media SLac” value [11] of the same molecule?
Answer: 1.46 µg/mL

Question: What does the source list for COc1cccc2[nH]c(-c3ccccn3)nc12 [compound 320656]?
Answer: MIC in the media 7H9 [11]: ≥ 45.06 µg/mL; MIC in the media L-Ala [11]: 5.63 µg/mL (≈ 25 µM); MIC in the media SBA [11]: 11.27 µg/mL (≈ 50 µM); MIC in the media SLac [11]: 1.41 µg/mL (≈ 6.26 µM)

Question: With CS(=O)(=O)O.OC(c1cc(C(F)(F)F)nc2c(Cl)cc(Cl)cc12)C1CCCCN1 (stereo not drawn) [compound 322661] as the molecule, how does the “MIC in the media 7H9” value [11] read?
Answer: ≥ 11.88 µg/mL

Question: What about the “MIC in the media L-Ala” value [11] of the same molecule?
Answer: 2.97 µg/mL

Question: And the “MIC in the media SBA” value [11]?
Answer: 1.52 µg/mL

Question: What about the “MIC in the media SLac” value [11] of the same molecule?
Answer: 2.97 µg/mL

Question: NC1(N2SC(S)=C3CCCC=C32)CCCCC1 [compound 327444] was tested. Which “MIC in the media 7H9” value [11] did it give?
Answer: ≥ 26.84 µg/mL

Question: And the “MIC in the media L-Ala” value [11]?
Answer: 6.71 µg/mL (≈ 25 µM)

Question: What about the “MIC in the media SBA” value [11] of the same molecule?
Answer: 13.42 µg/mL (≈ 50 µM)

Question: And the “MIC in the media SLac” value [11]?
Answer: 3.36 µg/mL (≈ 12.5 µM)

Question: What does the source list for Cc1cc(C(C#N)c2ccc(Cl)cc2)c(Cl)cc1NC(=O)c1cc(I)cc(I)c1O (stereo not drawn) [compound 335306]?
Answer: MIC in the media 7H9 [11]: ≥ 66.31 µg/mL; MIC in the media L-Ala [11]: 4.14 µg/mL (≈ 6.24 µM); MIC in the media SBA [11]: 4.14 µg/mL (≈ 6.24 µM); MIC in the media SLac [11]: 4.14 µg/mL (≈ 6.24 µM)

Question: Which “MIC in the media 7H9” value [11] does the source give for Oc1c(N=Nc2nn[nH]n2)ccc2ccccc12 [compound 338106] here?
Answer: ≥ 3.00 µg/mL

Question: What about the “MIC in the media L-Ala” value [11] of the same molecule?
Answer: 1.50 µg/mL (≈ 6.24 µM)

Question: What about the “MIC in the media SBA” value [11] of the same molecule?
Answer: 1.50 µg/mL (≈ 6.24 µM)

Question: And the “MIC in the media SLac” value [11]?
Answer: 0.77 µg/mL (≈ 3.21 µM)

Question: For CC[C@@]1([C@@H]2O[C@@H]([C@H]3O[C@@](O)(CO)[C@H](C)C[C@@H]3C)C[C@@H]2C)CC[C@H]([C@]2(C)CC[C@]3(C[C@H](O)[C@@H](C)[C@@H]([C@@H](C)[C@@H](OC)[C@H](C)C(=O)[O-])O3)O2)O1.[Na+] [compound 343257], which “MIC in the media 7H9” value [11] is on record?
Answer: ≥ 4.33 µg/mL

Question: And the “MIC in the media L-Ala” value [11]?
Answer: 4.33 µg/mL

Question: And the “MIC in the media SBA” value [11]?
Answer: 4.33 µg/mL

Question: What about the “MIC in the media SLac” value [11] of the same molecule?
Answer: 8.66 µg/mL

Question: O=[N+]([O-])c1oc2ccc3ccccc3c2c1CCO [compound 373981] was tested. Which “MIC in the media 7H9” value [11] did it give?
Answer: ≥ 0.82 µg/mL

Question: And the “MIC in the media L-Ala” value [11]?
Answer: 0.82 µg/mL (≈ 3.19 µM)

Question: And the “MIC in the media SBA” value [11]?
Answer: 0.82 µg/mL (≈ 3.19 µM)

Question: What about the “MIC in the media SLac” value [11] of the same molecule?
Answer: 0.82 µg/mL (≈ 3.19 µM)

Question: Which results are given for O=C(Nc1ccccc1)c1cc(Cl)ccc1O [compound 402600]?
Answer: MIC in the media 7H9 [11]: ≥ 24.77 µg/mL; MIC in the media L-Ala [11]: 1.55 µg/mL (≈ 6.26 µM); MIC in the media SBA [11]: 1.55 µg/mL (≈ 6.26 µM); MIC in the media SLac [11]: 0.79 µg/mL (≈ 3.19 µM)

Question: CCCOC(=O)c1ccc([N+](=O)[O-])cc1 [compound 406847] was tested. Which “MIC in the media 7H9” value [11] did it give?
Answer: ≥ 83.68 µg/mL

Question: And the “MIC in the media L-Ala” value [11]?
Answer: 5.23 µg/mL (≈ 25 µM)

Question: What about the “MIC in the media SBA” value [11] of the same molecule?
Answer: 10.46 µg/mL (≈ 50 µM)

Question: And the “MIC in the media SLac” value [11]?
Answer: 5.23 µg/mL (≈ 25 µM)

Question: With O=C(CCc1ccc(O)cc1)c1c(O)cc(O)cc1O [compound 407292] as the molecule, how does the “MIC in the media 7H9” value [11] read?
Answer: ≥ 109.72 µg/mL

Question: And the “MIC in the media L-Ala” value [11]?
Answer: 1.71 µg/mL (≈ 6.23 µM)

Question: What about the “MIC in the media SBA” value [11] of the same molecule?
Answer: 3.43 µg/mL (≈ 12.5 µM)

Question: And the “MIC in the media SLac” value [11]?
Answer: 1.71 µg/mL (≈ 6.23 µM)

— patent US20240148723A1, “MYCOBACTERIUM TUBERCULOSIS COMPOSITIONS AND METHODS” (priority 2021, published 2024)
